Experimental data from patent US8119805B2, “Substituted disulfonamide compounds” (Gruenenthal GmbH, priority 2008, dated 2012).
Counter-ions that a name gives are not always drawn.

Key:
[1] = molecular target: T1, human B1R receptor (hB1R) (Homo sapiens, UniProt P46663); experiment: Functional investigation on the bradykinin 1 receptor (B1R), FLIPR Ca2+ assay, hB1R cells; assay type: cell-based; conditions: test substance 10 μM; CHO K1 cells transfected with human B1R gene; Fluo-4 Ca2+ signal; agonist Lys-Des-Arg9-bradykinin at EC80; % of maximum achievable inhibition; read-out: B1R antagonism, human [10 μM] % inhibition
T1 construct: expressed in transfected cells; host or cells: CHO K1 cells
T1 sequence (P46663 1-353): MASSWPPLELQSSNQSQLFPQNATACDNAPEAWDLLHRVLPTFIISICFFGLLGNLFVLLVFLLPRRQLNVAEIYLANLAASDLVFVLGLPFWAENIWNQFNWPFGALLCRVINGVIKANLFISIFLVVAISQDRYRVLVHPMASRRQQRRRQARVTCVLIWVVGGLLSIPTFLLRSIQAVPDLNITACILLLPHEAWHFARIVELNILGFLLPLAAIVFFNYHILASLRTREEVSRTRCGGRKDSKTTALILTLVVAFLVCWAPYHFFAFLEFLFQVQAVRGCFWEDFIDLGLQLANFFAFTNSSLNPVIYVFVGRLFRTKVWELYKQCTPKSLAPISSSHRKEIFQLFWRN
Procedure: (§1) The agonistic or antagonistic action of substances on the bradykinin 1 receptor (B1R) of the human and rat species can be quantified with ectopically expressing cell lines (CHO K1 cells) and with the aid of a Ca^2+-sensitive dyestuff (Fluo-4) in a fluorescent imaging plate reader (FLIPR). The value in % activation is based on the Ca^2+ signal after addition of Lys-Des-[…]-bradykinin (0.5 nM) or Des-[…]-bradykinin (100 nM). Antagonists lead to a suppression of the Ca^2+inflow after addition of the agonist. % inhibition compared with the maximum achievable inhibition is stated. The agonistic or antagonistic action of substances on the bradykinin 1 receptor (B1R) of the human and rat species can be determined with the following assay. In accordance with this assay, the Ca^2+ inflow through the channel is quantified with the aid of a Ca^2+-sensitive dyestuff (type Fluo-4, Molecular Probes Europe BV, Leiden, Holland) in a fluorescent imaging plate reader (FLIPR, Molecular Devices, Sunnyvale, USA). Chinese hamster ovary cells (CHO K1 cells) transfected stably with the human B1R gene (hB1R cells) or the B1R gene of the rat (rB1R cells) are used. For functional studies, these cells are plated out on black 96-well plates with a clear base (BD Biosciences, Heidelberg, Germany or Greiner, Frickenhausen, Germany) in a density of 20,000-35,000 cells/well. The cells are left overnight at 37° C. and 5% CO2 in culture medium (hB1R cells: Nutrient Mixture Ham's F12, Gibco Invitrogen GmbH, Karlsruhe, Germany or DMEM, Sigma-Aldrich, Taufkirchen, Germany; rB1R cells: D-MEM/F12, Gibco Invitrogen GmbH, Karlsruhe, Germany) with 10 vol. % FBS (foetal bovine serum, Gibco Invitrogen GmbH, Karlsruhe, Germany or PAN Biotech GmbH, Aidenbach, Germany). On the following day, the cells are loaded for 60 min at 37° C. with 2.13 μM Fluo-4 (Molecular Probes Europe BV, Leiden Holland) in HBSS buffer (Hank's buffered saline solution, Gibco Invitrogen GmbH, Karlsruhe, Germany) with 2.5 mM probenecid (Sigma-Aldrich, Taufkirchen, Germany) and 10 mM HEPES (Sigma-Aldrich, Taufkirchen, Germany). The plates are then washed 2× with HBSS buffer, and HBSS buffer which additionally contains 0.1% BSA (bovine serum albumin; Sigma-Aldrich, Taufkirchen, Germany), 5.6 mM glucose and 0.05% gelatine (Merck KGaA, Darmstadt, Germany) is added. After a further incubation of 20 minutes at room temperature, the plates are inserted into the FLIPR for the Ca^2+ measurement. Alternatively, the plates are washed with buffer A (15 mM HEPES, 80 mM NaCl, 5 mM KCl, 1.2 mM CaCl2, 0.7 mM MgSO4, 2 g/l glucose, 2.5 mM probenecid), buffer A is added and the plates are loaded with 2.5 μM Fluo-4 and 0.025% Pluronic F127 (Sigma-Aldrich, Taufkirchen, Germany). Thereafter, the cells are washed 2× with buffer A and incubated for 30 minutes at room temperature with buffer A, which additionally contains 0.05% BSA and 0.05% gelatine, and thereafter inserted into the FLIPR for the Ca^2+ measurement. The Ca^2+-dependent fluorescence is measured here before and after addition of substances (λex=488 nm, λem=540 nm). Quantification is by measurement of the highest fluorescence intensity (FC, fluorescence counts) over time. The FLIPR protocol consists of 2 additions of substance. Test substances (10 μM) are first pipetted on to the cells and the Ca^2+ inflow is compared with the control (hB1R: Lys-Des-[…]-bradykinin>=50 nM; rB1R: Des-[…]-bradykinin 10 μM). This gives the result in % activation based on the Ca^2+ signal after addition of Lys-Des-[…]-bradykinin (>=50 nM) or Des-[…]-bradykinin (10 μM). After incubation for 10-20 minutes, Lys-Des-[…]-bradykinin (hB1R) or Des-[…]-bradykinin (rB1R) at the EC80 concentration is applied and the inflow of Ca^2+ is likewise determined. Antagonists lead to a suppression of the Ca^2+ inflow. The percent inhibition compared to the maximum achievable inhibition is calculated. In order to determine the IC50 value, the substances are added in various concentrations. […]

[2] = molecular target: T2, B1R receptor of the rat (rB1R) (Rattus norvegicus, UniProt P97583); experiment: Functional investigation on the bradykinin 1 receptor (B1R), FLIPR Ca2+ assay, rB1R cells; assay type: cell-based; conditions: test substance 10 μM; CHO K1 cells transfected with rat B1R gene; Fluo-4 Ca2+ signal; agonist Des-Arg9-bradykinin at EC80; % of maximum achievable inhibition; read-out: B1R antagonism, rat [10 μM] % inhibition
T2 construct: expressed in transfected cells; host or cells: CHO K1 cells
T2 sequence (P97583 1-337): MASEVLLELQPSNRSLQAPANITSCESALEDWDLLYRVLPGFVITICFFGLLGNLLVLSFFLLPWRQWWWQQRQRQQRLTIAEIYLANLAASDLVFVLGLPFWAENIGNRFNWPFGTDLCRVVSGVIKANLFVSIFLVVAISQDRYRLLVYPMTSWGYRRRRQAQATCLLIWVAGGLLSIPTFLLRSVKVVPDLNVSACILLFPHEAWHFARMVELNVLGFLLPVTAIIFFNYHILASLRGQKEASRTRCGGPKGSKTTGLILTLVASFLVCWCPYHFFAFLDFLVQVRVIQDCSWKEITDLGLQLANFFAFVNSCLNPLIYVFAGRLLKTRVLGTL
Procedure: as §1

| Compound | inhibition at 10 µM [1] [%] | inhibition at 10 µM [2] [%] |
| --- | --- | --- |
| Cc1cc(C)c(S(=O)(=O)N2CCC(CCCS(=O)(=O)N3CCC(CCN4CCCC4)CC3)CC2)c(C)c1 [Example 12, 1-(Mesitylsulfonyl)-4-(3-(4-(2-(pyrrolidin-1-yl)ethyl)piperidin-1-ylsulfonyl)propyl)piperidine] | 52 |  |
| CN1CCC(N2CCN(S(=O)(=O)CCCCC3CCCN3S(=O)(=O)c3cccc4ccccc34)CC2)CC1 (stereo not drawn) [Example 5, 1-(1-Methylpiperidin-4-yl)-4-(4-(1-(naphthalen-1-ylsulfonyl)pyrrolidin-2-yl)butylsulfonyl)piperazine dihydrochloride] | 49 | 56 |
| Cc1cc(C)c(S(=O)(=O)N2CCC(CCS(=O)(=O)N3CCN(c4ccncc4)CC3)C2)c(C)c1 (stereo not drawn) [Example 20, 1-(2-(1-(Mesitylsulfonyl)pyrrolidin-3-yl)ethylsulfonyl)-4-(pyridin-4-yl)piperazine hydrochloride] | 103 | 75 |
| COc1cc(C)c(S(=O)(=O)N2CCC[C@@H]2CCCS(=O)(=O)N2CCN(C3CCN(C)CC3)CC2)c(C)c1 [Example 34, (R)-1-(3-(1-(4-Methoxy-2,6-dimethylphenylsulfonyl)pyrrolidin-2-yl)propylsulfonyl)-4-(1-methylpiperidin-4-yl)piperazine] | 99 | 96 |
| O=S(=O)(CCC[C@@H]1CCCN1S(=O)(=O)c1ccccc1C(F)(F)F)N1[C@@H]2CC[C@H]1C[C@H](Oc1ccncc1)C2 [Example 56, (1R,3R,5S)-3-(Pyridin-4-yloxy)-8-(3-((S)-1-(2-(trifluoromethyl)phenylsulfonyl)pyrrolidin-2-yl)propylsulfonyl)-8-azabicyclo[3.2.1]octane] | 95 | 99 |
| Cc1cc(C)c(S(=O)(=O)N2CCC(CCCS(=O)(=O)N3CCN(C4CCN(C)CC4)CC3)CC2)c(C)c1 [Example 13, 1-(3-(1-(Mesitylsulfonyl)piperidin-4-yl)propylsulfonyl)-4-(1-methylpiperidin-4-yl)piperazine] | 53 |  |
| Cc1cc(C)c(S(=O)(=O)N2CCC(CCS(=O)(=O)N3CCC(CCN4CCCC4)CC3)C2)c(C)c1 (stereo not drawn) [Example 1, 1-(2-(1-(Mesitylsulfonyl)pyrrolidin-3-yl)ethylsulfonyl)-4-(2-(pyrrolidin-1-yl)ethyl)piperidine] | 83 |  |

Now from value to compound:

| inhibition at 10 µM [1] [%] | inhibition at 10 µM [2] [%] | Compound |
| --- | --- | --- |
| 98 | 102 | COc1cc(C)c(S(=O)(=O)N2c3ccccc3CC2CCCS(=O)(=O)N2CCC3(CCN(c4ccncc4)CC3)CC2)c(C)c1 (stereo not drawn) [Example 45, 1-(4-Methoxy-2,6-dimethylphenylsulfonyl)-2-(3-(9-(pyridin-4-yl)-3,9-diazaspiro[5.5]undecan-3-ylsulfonyl)propyl)indoline] |
| 96 | 82 | COc1cc(C)c(S(=O)(=O)N2CCC[C@H]2CCCS(=O)(=O)N2CCC3(CCN(c4ccncc4)C3)C2)cc1C (stereo partly drawn) [Example 84, 2-(3-((S)-1-(4-Methoxy-2,5-dimethylphenylsulfonyl)pyrrolidin-2-yl)propylsulfonyl)-7-(pyridin-4-yl)-2,7-diazaspiro[4.4]nonane] |
| 55 |  | O=S(=O)(CCC1CCN(S(=O)(=O)c2csc3ccccc23)C1)N1CCC(CCN2CCCC2)CC1 (stereo not drawn) [Example 3, 1-(2-(1-(Benzo[b]thiophen-3-ylsulfonyl)pyrrolidin-3-yl)ethylsulfonyl)-4-(2-(pyrrolidin-1-yl)ethyl)piperidine] |
| 58 |  | O=S(=O)(CCC1CCN(S(=O)(=O)c2c(Cl)cc(C(F)(F)F)cc2Cl)CC1)N1CCC(CCN2CCCC2)CC1 [Example 14, 1-(2,6-Dichloro-4-(trifluoromethyl)phenylsulfonyl)-4-(2-(4-(2-(pyrrolidin-1-yl)ethyl)piperidin-1-ylsulfonyl)ethyl)piperidine] |
| 50 |  | COc1cc(C)c(S(=O)(=O)N2CCC[C@H]2CCCS(=O)(=O)N2CCN(c3nccs3)CC2)c(C)c1C [Example 40, (S)-2-(4-(3-(1-(4-Methoxy-2,3,6-trimethylphenylsulfonyl)pyrrolidin-2-yl)propylsulfonyl)piperazin-1-yl)thiazole] |
